Columns and labels:
[1] = molecular target: CDK6/Cyclin D1 (Homo sapiens (Human), UniProt Q00534); experiment: biochemical; settings: CDK6_Ki (nM), non-phosphorylated CDK6/Cyclin D1, 2 mM ATP, Morrison fit
[2] = molecular target: CDK2/Cyclin E1 (Homo sapiens (Human), UniProt P24941); experiment: biochemical; settings: CDK2_Ki (nM), phosphorylated CDK2/Cyclin E1, 150 μM ATP, Morrison tight-binding fit
Description: The assay was initiated with the addition of ATP, following a fifteen minutes pre-incubation of enzyme and inhibitor at room temperature in the reaction mixture. The reaction was stopped after 45 minutes at room temperature by the addition of 50 μL of 80 mM EDTA, pH 7.5.

CDK6/Cyclin D1, sequence (Q00534 whole entry): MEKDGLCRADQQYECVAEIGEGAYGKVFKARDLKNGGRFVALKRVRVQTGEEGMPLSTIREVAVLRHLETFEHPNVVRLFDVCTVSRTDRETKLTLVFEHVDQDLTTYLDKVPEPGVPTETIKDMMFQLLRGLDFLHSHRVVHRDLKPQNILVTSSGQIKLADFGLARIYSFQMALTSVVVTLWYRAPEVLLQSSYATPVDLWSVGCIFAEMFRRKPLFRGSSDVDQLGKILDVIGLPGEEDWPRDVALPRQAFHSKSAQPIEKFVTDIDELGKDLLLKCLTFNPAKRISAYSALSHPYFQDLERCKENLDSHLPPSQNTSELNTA
CDK6/Cyclin D1, sequence (P24385 whole entry partner): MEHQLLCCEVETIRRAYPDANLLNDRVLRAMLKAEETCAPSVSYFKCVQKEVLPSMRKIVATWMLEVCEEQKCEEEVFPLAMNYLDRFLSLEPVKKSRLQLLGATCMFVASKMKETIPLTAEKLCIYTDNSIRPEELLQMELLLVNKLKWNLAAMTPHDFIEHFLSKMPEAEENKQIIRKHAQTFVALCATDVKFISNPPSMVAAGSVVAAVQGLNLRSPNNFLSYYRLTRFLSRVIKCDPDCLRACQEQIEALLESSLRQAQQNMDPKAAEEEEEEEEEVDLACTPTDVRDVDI

SMILES | Ki [1] [nM] | Ki [2] [nM]
CNS(=O)(=O)N1CCC(Nc2ncc3ccc(=O)n([C@@H]4CCC[C@@]4(C)O)c3n2)CC1 (single isomer, unassigned) [Example 56, (−)-4-({8-[(1R*,2R*)-2-hydroxy-2-methylcyclopentyl]-7-oxo-7,8-dihydropyrido[2,3-d]pyrimidin-2-yl}amino)-N-methylpiperidine-1-sulfonamide] | 1.77 | 0.28
C[C@]1(O)CCC[C@@H]1n1c(=O)ccc2cnc(NC3CCN(S(=O)(=O)CF)CC3)nc21 (single isomer, unassigned) [Example 59, (+)-2-({1-[(fluoromethyl)sulfonyl]piperidin-4-yl}amino)-8-[(1R*,2R*)-2-hydroxy-2-methylcyclopentyl]pyrido[2,3-d]pyrimidin-7(8H)-one] | 3.37 | 4.13
COC(C)(C)CNS(=O)(=O)N1CCC(Nc2ncc3ccc(=O)n([C@@H]4CCC[C@@]4(C)O)c3n2)CC1 (single isomer, unassigned) [Example 60, (−)-4-({8-[(1R*,2R*)-2-hydroxy-2-methylcyclopentyl]-7-oxo-7,8-dihydropyrido[2,3-d]pyrimidin-2-yl}amino)-N-(2-methoxy-2-methylpropyl)piperidine-1-sulfonamide] | 3.18 | 0.48
CC(F)(F)CNS(=O)(=O)N1CCC(Nc2ncc3ccc(=O)n([C@H]4CCC[C@]4(C)O)c3n2)CC1 (single isomer, unassigned) [Example 67, (+)-N-(2,2-difluoropropyl)-4-({8-[(1R*,2R*)-2-hydroxy-2-methylcyclopentyl]-7-oxo-7,8-dihydropyrido[2,3-d]pyrimidin-2-yl}amino)piperidine-1-sulfonamide] | 21.6 | 4.05
C[C@@]1(O)CCC[C@H]1n1c(=O)ccc2cnc(NC3CCN(S(=O)(=O)NC4CCOCC4)CC3)nc21 (single isomer, unassigned) [Example 68, (−)-4-({8-[(1R*,2R*)-2-hydroxy-2-methylcyclopentyl]-7-oxo-7,8-dihydropyrido[2,3-d]pyrimidin-2-yl}amino)-N-(tetrahydro-2H-pyran-4-yl)piperidine-1-sulfonamide] | 3.23 | 0.41
C[C@@]1(O)CCC[C@H]1n1c(=O)ccc2cnc(NC3CCN(S(=O)(=O)C4CCS(=O)(=O)C4)CC3)nc21 (single isomer, unassigned) [Example 70] | 0.83 | 0.35
COCCS(=O)(=O)N1CCC(Nc2ncc3ccc(=O)n([C@H]4CCC[C@]4(C)O)c3n2)CC1 (single isomer, unassigned) [Example 73, (+)-8-[(1R*,2R*)-2-hydroxy-2-methylcyclopentyl]-2-({1-[(2-methoxyethyl)sulfonyl]piperidin-4-yl}amino)pyrido[2,3-d]pyrimidin-7(8H)-one] | 8.95 | 5.03
C[C@@]1(O)CCC[C@H]1n1c(=O)ccc2cnc(NC3CCN(S(=O)(=O)C4CC4)CC3)nc21 (single isomer, unassigned) [Example 74, (−)-2-{[1-(cyclopropylsulfonyl)piperidin-4-yl]amino}-8-[(1R*,2R*)-2-hydroxy-2-methylcyclopentyl]pyrido[2,3-d]pyrimidin-7(8H)-one] | 1.01 | 0.2
CCS(=O)(=O)N1CCC(Nc2ncc3ccc(=O)n([C@@H]4CCC[C@@]4(C)O)c3n2)CC1 (single isomer, unassigned) [Example 76, (−)-2-{[1-(ethylsulfonyl)piperidin-4-yl]amino}-8-[(1R*,2R*)-2-hydroxy-2-methylcyclopentyl]pyrido[2,3-d]pyrimidin-7(8H)-one] | 1.24 | 0.21
C[C@@]1(O)CCC[C@H]1n1c(=O)ccc2cnc(NC3CCN(S(=O)(=O)c4nccs4)CC3)nc21 (single isomer, unassigned) [Example 78, (−)-8-[(1R*,2R*)-2-hydroxy-2-methylcyclopentyl]-2-{[1-(1,3-thiazol-2-ylsulfonyl)piperidin-4-yl]amino}pyrido[2,3-d]pyrimidin-7(8H)-one] | 1.63 | 0.25
C[C@@]1(O)CCC[C@H]1n1c(=O)ccc2cnc(NC3CCN(S(=O)(=O)c4nncs4)CC3)nc21 (single isomer, unassigned) [Example 80, (−)-8-[(1R*,2R*)-2-hydroxy-2-methylcyclopentyl]-2-{[1-(1,3,4-thiadiazol-2-ylsulfonyl)piperidin-4-yl]amino}pyrido[2,3-d]pyrimidin-7(8H)-one] | 1.53 | 0.25
Cn1cc(S(=O)(=O)N2CCC(Nc3ncc4ccc(=O)n([C@@H]5CCC[C@@]5(C)O)c4n3)CC2)cn1 (single isomer, unassigned) [Example 82, (−)-8-[(1R*,2R*)-2-hydroxy-2-methylcyclopentyl]-2-({1-[(1-methyl-1H-pyrazol-4-yl)sulfonyl]piperidin-4-yl}amino)pyrido[2,3-d]pyrimidin-7(8H)-one] | 1.21 | 0.1
Cn1cc(S(=O)(=O)N2CCC(Nc3ncc4ccc(=O)n([C@H]5CCC[C@]5(C)O)c4n3)CC2)cn1 (single isomer, unassigned) [Example 83, (+)-8-[(1R*,2R*)-2-hydroxy-2-methylcyclopentyl]-2-({1-[(1-methyl-1H-pyrazol-4-yl)sulfonyl]piperidin-4-yl}amino)pyrido[2,3-d]pyrimidin-7(8H)-one] | 9.77 | 1.98
Cn1cnc(S(=O)(=O)N2CCC(Nc3ncc4ccc(=O)n([C@@H]5CCC[C@@]5(C)O)c4n3)CC2)c1 (single isomer, unassigned) [Example 84, (−)-8-[(1R*,2R*)-2-hydroxy-2-methylcyclopentyl]-2-({1-[(1-methyl-1H-imidazol-4-yl)sulfonyl]piperidin-4-yl}amino)pyrido[2,3-d]pyrimidin-7(8H)-one] | 0.92 | 0.08
Cn1cnc(S(=O)(=O)N2CCC(Nc3ncc4ccc(=O)n([C@H]5CCC[C@]5(C)O)c4n3)CC2)c1 (single isomer, unassigned) [Example 85, (+)-8-[(1R*,2R*)-2-hydroxy-2-methylcyclopentyl]-2-({1-[(1-methyl-1H-imidazol-4-yl)sulfonyl]piperidin-4-yl}amino)pyrido[2,3-d]pyrimidin-7(8H)-one] | 8.29 | 1.98

Further compounds by falling Ki [1], results first:

Ki [1] [nM] | Ki [2] [nM] | SMILES
22.2 | 4.48 | C[C@]1(O)CCC[C@@H]1n1c(=O)ccc2cnc(NC3CCN(S(=O)(=O)NC4CCOCC4)CC3)nc21 (single isomer, unassigned) [Example 69, (+)-4-({8-[(1R*,2R*)-2-hydroxy-2-methylcyclopentyl]-7-oxo-7,8-dihydropyrido[2,3-d]pyrimidin-2-yl}amino)-N-(tetrahydro-2H-pyran-4-yl)piperidine-1-sulfonamide]
19.7 | 4.55 | COC(C)(C)CNS(=O)(=O)N1CCC(Nc2ncc3ccc(=O)n([C@H]4CCC[C@]4(C)O)c3n2)CC1 (single isomer, unassigned) [Example 61, (+)-4-({8-[(1R*,2R*)-2-hydroxy-2-methylcyclopentyl]-7-oxo-7,8-dihydropyrido[2,3-d]pyrimidin-2-yl}amino)-N-(2-methoxy-2-methylpropyl)piperidine-1-sulfonamide]
9.59 | 7.32 | C[C@]1(O)CCC[C@@H]1n1c(=O)ccc2cnc(NC3CCN(S(=O)(=O)c4nccs4)CC3)nc21 (single isomer, unassigned) [Example 79, (+)-8-[(1R*,2R*)-2-hydroxy-2-methylcyclopentyl]-2-{[1-(1,3-thiazol-2-ylsulfonyl)piperidin-4-yl]amino}pyrido[2,3-d]pyrimidin-7(8H)-one]
6.6 | 4.07 | CCS(=O)(=O)N1CCC(Nc2ncc3ccc(=O)n([C@H]4CCC[C@]4(C)O)c3n2)CC1 (single isomer, unassigned) [Example 77, (+)-2-{[1-(ethylsulfonyl)piperidin-4-yl]amino}-8-[(1R*,2R*)-2-hydroxy-2-methylcyclopentyl]pyrido[2,3-d]pyrimidin-7(8H)-one]
6.24 | 7.03 | C[C@]1(O)CCC[C@@H]1n1c(=O)ccc2cnc(NC3CCN(S(=O)(=O)c4nncs4)CC3)nc21 (single isomer, unassigned) [Example 81, (+)-8-[(1R*,2R*)-2-hydroxy-2-methylcyclopentyl]-2-{[1-(1,3,4-thiadiazol-2-ylsulfonyl)piperidin-4-yl]amino}pyrido[2,3-d]pyrimidin-7(8H)-one]
4.96 | 3.85 | C[C@]1(O)CCC[C@@H]1n1c(=O)ccc2cnc(NC3CCN(S(=O)(=O)C4CC4)CC3)nc21 (single isomer, unassigned) [Example 75, (+)-2-{[1-(cyclopropylsulfonyl)piperidin-4-yl]amino}-8-[(1R*,2R*)-2-hydroxy-2-methylcyclopentyl]pyrido[2,3-d]pyrimidin-7(8H)-one]
2.47 | 0.21 | CC(F)(F)CNS(=O)(=O)N1CCC(Nc2ncc3ccc(=O)n([C@@H]4CCC[C@@]4(C)O)c3n2)CC1 (single isomer, unassigned) [Example 66, (−)-N-(2,2-difluoropropyl)-4-({8-[(1R*,2R*)-2-hydroxy-2-methylcyclopentyl]-7-oxo-7,8-dihydropyrido[2,3-d]pyrimidin-2-yl}amino)piperidine-1-sulfonamide]
1.09 | 0.42 | COCCS(=O)(=O)N1CCC(Nc2ncc3ccc(=O)n([C@@H]4CCCC4(C)O)c3n2)CC1 (single isomer, unassigned) [Example 72, (−)-8-[(1R*,2R*)-2-hydroxy-2-methylcyclopentyl]-2-({1-[(2-methoxyethyl)sulfonyl]piperidin-4-yl}amino)pyrido[2,3-d]pyrimidin-7(8H)-one]
0.49 | 0.27 | C[C@@]1(O)CCC[C@H]1n1c(=O)ccc2cnc(NC3CCN(S(=O)(=O)CF)CC3)nc21 (single isomer, unassigned) [Example 58, (−)-2-({1-[(fluoromethyl)sulfonyl]piperidin-4-yl}amino)-8-[(1R*,2R*)-2-hydroxy-2-methylcyclopentyl]pyrido[2,3-d]pyrimidin-7(8H)-one]
